Experiment: logP determination by HPLC (EEC directive 79/831 Annex V. A8)
Assay type: physicochemical
Details: HPLC gradient method, acetonitrile/0.1% aqueous phosphoric acid
[1] = E/Z mixture, first value (matches the E isomer)
[2] = E/Z mixture, second printed value (matches the Z isomer)
[3] = single isomer (E or Z as in isomer column)

Row | SMILES | logP [1] | logP [2] | logP [3] | also measured
1 | CCOc1ccc(CCNC(=O)C(=NOC)c2ccc(Br)cc2)cc1OC (mixture of isomers) [Example 3] | 3.18 | 3.44 | – | –
2 | CCOc1ccc(CCNC(=O)C(=NOC)c2ccc(C)cc2)cc1OC (mixture of isomers) [Example 5] | 2.87 | 3.05 | – | –
3 | CCOc1ccc(CCNC(=O)C(=NOC)c2ccc(CC)cc2)cc1OC (mixture of isomers) [Example 6] | 3.21 | 3.40 | – | –
4 | CCON=C(C(=O)NCCc1ccc(OCC)c(OC)c1)c1ccc(Br)cc1 (mixture of isomers) [Example 19] | 3.51 | 3.80 | – | –
5 | CCON=C(C(=O)NCCc1ccc(OCC)c(OC)c1)c1ccc(Cl)cc1 (mixture of isomers) [Example 21] | 3.41 | 3.69 | – | –
6 | CCON=C(C(=O)NCCc1ccc(OCC)c(OC)c1)c1ccc(C)cc1 (mixture of isomers) [Example 22] | 3.19 | 3.48 | – | –
7 | CCON=C(C(=O)NCCc1ccc(OCC)c(OC)c1)c1ccc(CC)cc1 (mixture of isomers) [Example 23] | 3.55 | 3.85 | – | –
8 | CCOc1ccc(CCNC(=O)C(=NOC)c2ccc(Cl)cc2)cc1OC (racemic) [Example 1, N-[2-(4-ethoxy-3-methoxyphenyl)-1-ethyl]-2-methoxyimino-2-(4-chlorophenyl)-acetamide] | – | – | – | chromatographic logP [1]: 3.08; chromatographic logP [2]: 3.26
9 | CCOc1ccc(CCNC(=O)C(=NOC)c2ccc(Br)cc2)cc1OC [Example 9] | – | – | 3.44 | –
10 | CCOc1ccc(CCNC(=O)C(=NOC)c2ccc(Br)cc2)cc1OC [Example 10] | – | – | 3.18 | –
11 | CCOc1ccc(CCNC(=O)C(=NOC)c2ccc(Cl)cc2)cc1OC [Example 11] | – | – | 3.08 | –
12 | CCOc1ccc(CCNC(=O)C(=NOC)c2ccc(Cl)cc2)cc1OC [Example 12] | – | – | 3.26 | –
13 | CCOc1ccc(CCNC(=O)C(=NOC)c2ccc(C)cc2)cc1OC [Example 15] | – | – | 2.87 | –
14 | CCOc1ccc(CCNC(=O)C(=NOC)c2ccc(CC)cc2)cc1OC [Example 16] | – | – | 3.04 | –
15 | CCOc1ccc(CCNC(=O)C(=NOC)c2ccc(CC)cc2)cc1OC [Example 17] | – | – | 3.21 | –
16 | CCON=C(C(=O)NCCc1ccc(OCC)c(OC)c1)c1ccc(Br)cc1 [Example 24] | – | – | 3.80 | –
17 | CCON=C(C(=O)NCCc1ccc(OCC)c(OC)c1)c1ccc(C)cc1 [Example 27] | – | – | 3.48 | –
